Source: the supplement of paper PMC8967900

Columns and labels:
Assay in all cases: selective drug sensitivity score (sDSS, relative to normal bone marrow) (sDSS (score)); higher = more potent and effective on the cell line relative to normal bone marrow cells
Details in all cases: 72 h
NALM-6 = system: NALM-6
MOLT-16 = system: MOLT-16
NALM-16 = system: NALM-16
RCH-ACV = system: RCH-ACV
HPB-ALL = system: HPB-ALL
DND-41 = system: DND-41
ALL-SIL = system: ALL-SIL
KASUMI-9 = system: KASUMI-9
RPMI-8402 = system: RPMI-8402
MOLT-14 = system: MOLT-14
380 = system: 380
MHH-CALL-4 = system: MHH-CALL-4
CCRF-CEM = system: CCRF-CEM
COG-LL-394h = system: COG-LL-394h
697 = system: 697
COG-LL-402h = system: COG-LL-402h
KASUMI-10 = system: KASUMI-10
COG-LL-355h = system: COG-LL-355h
REH = system: REH
KASUMI-2 = system: KASUMI-2
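Note: ALL cell lines in 384-well plates, five doses spanning 10,000-fold, each plate scaled between vehicle and 100 µmol/L benzalkonium chloride controls, sDSS an adapted area-under-curve metric.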

SMILES | selective drug sensitivity score (NALM-6) | selective drug sensitivity score (MOLT-16) | selective drug sensitivity score (NALM-16) | selective drug sensitivity score (RCH-ACV) | selective drug sensitivity score (HPB-ALL) | selective drug sensitivity score (DND-41) | selective drug sensitivity score (ALL-SIL) | selective drug sensitivity score (KASUMI-9) | selective drug sensitivity score (RPMI-8402) | selective drug sensitivity score (MOLT-14) | selective drug sensitivity score 380 | selective drug sensitivity score (MHH-CALL-4) | selective drug sensitivity score (CCRF-CEM) | selective drug sensitivity score (COG-LL-394h) | selective drug sensitivity score 697 | selective drug sensitivity score (COG-LL-402h) | selective drug sensitivity score (KASUMI-10) | selective drug sensitivity score (COG-LL-355h) | selective drug sensitivity score (REH) | selective drug sensitivity score (KASUMI-2)
CN1CCN(C(=O)c2ccc3cc(CCNc4ncnc5ccc(C#N)cc45)ccc3c2)CC1 [Senexin_B] (top concentration 1000 nM) | 0.9 | 1.8 | -0.6 | 2 | -0.6 | -0.6 | -0.6 | -0.6 | 1.1 | 2.1 | -0.6 | -0.6 | 1.7 | 1 | 2.1 | -0.4 | 4.5 | -0.6 | -0.6 | -0.6
Clc1ccccc1C(c1ccccc1)(c1ccccc1)n1cccn1 [TRAM-34] (top concentration 1000 nM) | -0.08 | -0.08 | -0.08 | -0.08 | -0.08 | -0.08 | -0.08 | 2.52 | -0.08 | -0.08 | -0.08 | -0.08 | -0.08 | -0.08 | -0.08 | -0.08 | -0.08 | -0.08 | 0.22 | -0.08
C=CC[C@@H]1/C=C(\C)C[C@H](C)C[C@H](OC)[C@H]2O[C@@](O)(C(=O)C(=O)N3CCCC[C@H]3C(=O)O[C@H](/C(C)=C/[C@@H]3CC[C@@H](O)[C@H](OC)C3)[C@H](C)[C@@H](O)CC1=O)[C@H](C)C[C@@H]2OC [Tacrolimus] (top concentration 10000 nM) | 0.98 | 12.1 | 12.5 | 10.7 | 0.28 | 0.68 | 1.08 | 12.1 | 1.38 | 1.38 | 1.88 | -0.12 | 2.78 | 3.08 | 2.88 | -0.72 | -0.72 | 3.18 | 2.68 | -0.72
CCN(c1cc(-c2ccc(CN3CCOCC3)cc2)cc(C(=O)NCc2c(C)cc(C)[nH]c2=O)c1C)C1CCOCC1 [Tazemetostat] (top concentration 10000 nM) | -0.08 | -0.08 | -0.08 | -0.08 | -0.08 | 0.02 | 0.12 | 0.92 | 0.22 | 0.32 | -0.08 | -0.08 | 1.02 | -0.08 | 0.32 | -0.08 | -0.08 | -0.08 | -0.08 | -0.08
COc1cc2c(Nc3ccc(Cl)c(Cl)c3F)ncnc2cc1OC[C@@H]1C[C@@H]2CN(C)C[C@@H]2C1 [Tesevatinib] (top concentration 1000 nM) | -0.16 | 1.74 | -1.36 | 0.64 | 0.64 | 1.44 | -0.26 | 0.74 | 0.44 | -0.56 | -0.96 | 2.34 | 1.34 | -0.36 | -0.66 | 1.64 | -1.06 | 2.04 | -1.36 | -1.36
O=C1CCC(N2C(=O)c3ccccc3C2=O)C(=O)N1 (stereo not given) [Thalidomide] (top concentration 10000 nM) | -0.14 | -0.14 | -0.14 | -0.14 | -0.14 | -0.14 | -0.14 | -0.14 | -0.14 | -0.14 | -0.14 | -0.14 | -0.14 | -0.14 | -0.14 | -0.14 | -0.14 | 0.16 | -0.04 | -0.14
O=C1NC(=O)[C@@H](c2cn3c4c(cccc24)CCC3)[C@@H]1c1c[nH]c2ccccc12 [Tivantinib] (top concentration 1000 nM) | 5.08 | 3.48 | 4.28 | 4.28 | 2.88 | 0.78 | 7.18 | 5.38 | 3.68 | 3.18 | 6.18 | 4.88 | 3.98 | -0.42 | 5.18 | 2.38 | 1.98 | 0.18 | 7.78 | 0.68
C[C@@H]1CCN(C(=O)CC#N)C[C@@H]1N(C)c1ncnc2[nH]ccc12 [Tofacitinib] (top concentration 5000 nM) | -7.86 | -7.86 | -7.86 | -7.86 | -7.86 | 1.74 | -7.86 | -7.86 | -7.86 | -7.66 | -7.86 | -4.96 | -7.86 | -7.86 | -6.86 | -7.86 | -7.86 | 0.44 | -7.66 | -7.86
COc1cc2c(NC3CCN(C(C)C)CC3)nc(C3CCCCC3)nc2cc1OCCCN1CCCC1 [UNC0638] (top concentration 10000 nM) | -3.64 | -1.04 | -3.04 | 0.66 | -3.44 | 3.36 | 2.16 | -1.64 | -0.04 | -0.94 | 0.06 | -3.94 | 0.46 | 0.16 | -0.84 | 1.16 | -3.34 | 1.86 | -0.24 | -4.34
CCCCNc1ncc(C(=O)NCc2ccc(-n3ccnc3)cc2)c(NC2CCC(O)CC2)n1 (stereo not given) [UNC2881] (top concentration 2500 nM) | 0 | 0.2 | 0 | 0.4 | 0 | 0 | 2.8 | 0 | 0 | 0 | 0 | 0.5 | 0 | 0 | 1 | 0 | 4.9 | 0 | 0.2 | 0
CC[C@@H]1CN(C(=O)NCC(F)(F)F)C[C@@H]1c1cnc2cnc3[nH]ccc3n12 [Upadacitinib] (top concentration 10000 nM) | -5.96 | -7.16 | -7.16 | -7.16 | -7.16 | 0.84 | -7.16 | -2.76 | -7.16 | -7.16 | -0.16 | -6.46 | -4.66 | -7.16 | -6.06 | -7.16 | -7.16 | -7.16 | -7.16 | -6.56
O=C(O)CC1CC(c2ccccc2)=NO1 (stereo not given) [VGX-1027] (top concentration 10000 nM) | -0.04 | 0.16 | -0.04 | -0.04 | -0.04 | -0.04 | -0.04 | -0.04 | -0.04 | -0.04 | -0.04 | -0.04 | -0.04 | -0.04 | -0.04 | -0.04 | -0.04 | -0.04 | -0.04 | -0.04
CCCCC(=O)OCC(=O)[C@]1(O)Cc2c(O)c3c(c(O)c2[C@@H](O[C@H]2C[C@H](NC(=O)C(F)(F)F)[C@H](O)[C@H](C)O2)C1)C(=O)c1c(OC)cccc1C3=O [Valrubicin] (top concentration 5000 nM) | 3.18 | 18.1 | -3.22 | 11.8 | -4.12 | -1.02 | -0.72 | 5.68 | 6.88 | 12.6 | 13 | 7.28 | 10.9 | 7.78 | 8.58 | 13.8 | 8.48 | 2.98 | 12.1 | 8.38
CCc1c(C(=O)C(N)=O)c2c(OCC(=O)O)cccc2n1Cc1ccccc1 [Varespladib] (top concentration 10000 nM) | -0.84 | 1.76 | 0.56 | -0.84 | -0.84 | -0.84 | -0.84 | -0.84 | -0.84 | -0.84 | -0.84 | 3.56 | -0.84 | -0.84 | -0.84 | 6.36 | -0.84 | -0.84 | -0.84 | -0.84
CC1(C)CCC(CN2CCN(c3ccc(C(=O)NS(=O)(=O)c4ccc(NCC5CCOCC5)c([N+](=O)[O-])c4)c(Oc4cnc5[nH]ccc5c4)c3)CC2)=C(c2ccc(Cl)cc2)C1 [Venetoclax] (top concentration 1000 nM) | 4.4 | 6 | 22.6 | -1.3 | -0.9 | 2.1 | 16.5 | 25.4 | -4.4 | 8 | 29 | 14.2 | -1.8 | 4.5 | 10.1 | 14.1 | 29.5 | 31.2 | 0.9 | 22.9
CCCCOc1nc(N)c2c(n1)N(Cc1cccc(CN3CCCC3)c1)CC(=O)N2 [Vesatolimod] (top concentration 10000 nM) | -3.52 | -3.52 | -3.52 | -3.52 | -3.52 | -2.12 | -3.52 | -2.92 | -3.52 | -3.52 | -3.52 | -3.52 | -3.52 | -3.32 | -3.42 | -3.52 | -3.52 | 0.28 | -3.52 | -3.52
CCC1=C[C@@H]2CN(C1)Cc1c([nH]c3ccccc13)[C@@](C(=O)OC)(c1cc3c(cc1OC)N(C)[C@H]1[C@@](O)(C(=O)OC)[C@H](OC(C)=O)[C@]4(CC)C=CCN5CC[C@]31[C@@H]54)C2 [Vinorelbine] (top concentration 10000 nM) | 14.9 | 24.7 | 18.3 | 25.1 | 14.6 | 11.8 | 23.6 | 24.2 | 21 | 22.9 | 23.3 | 8.98 | 17.8 | 9.58 | 25 | 22.2 | 15.7 | 5.98 | 26.6 | 17.8
